From a melting point compilation (Tetko et al.)

With `Cc1ncc(CSSCc2cnc(C)c(O)c2CO)c(CO)c1O` the melting point was 219 °C.
For `FC(Cl)(Cl)C(Cl)(Cl)Cl`, the melting point was 101 °C.
`CC(C)C12C=CC(C)(CC1)OO2` (stereo not given) gave a melting point of 3.3 °C.
With `O=C1OC(=O)C23Cc4ccccc4CC12Cc1cc2c(cc1C3)CC2` (stereo not given) the melting point was 248 to 252 °C.
Work on `CCOC(=O)C1(S(=O)(=O)c2ccc(C)cc2)CCC1` yielded a melting point of 53.5 °C.
In the case of `O=C(O)CCc1ccccc1Cl`, the melting point is reported as 95.5 °C.
`Cc1cccc2ccoc12` gave a melting point of 109 °C.
Compound `Cc1nc(-c2ccc3c(c2)CCO3)sc1C(=O)Cl` has a melting point of 150 to 154 °C.
Work on `O=C(Cl)OCC1=Cc2ccccc2S1(=O)=O` yielded a melting point of 77 °C.
For `CS(=O)(=O)Nc1ccc2nn(C3CCCC3)nc2c1`, the melting point was 126 °C.
Work on `CCN(CC)c1ccc(Cl)cc1` yielded a melting point of 45.5 °C.
`Cc1ccc(C)c2c1C(=O)N(C)C2=O` showed a melting point of 170 °C.
`N#C/C(=N\Nc1ccc(Cl)cc1Cl)c1nc(-c2ccc(Cl)cc2)cs1` gave a melting point of 246 °C.
Compound `O=S(=O)(Cl)c1ccc(S(=O)(=O)c2ccccc2)s1` has a melting point of 104 °C.
In the case of `O=C(Cl)c1cc(Cl)nc2ccc(Br)cc12`, the melting point is reported as 140 to 142 °C.
`CCC(C)(C)c1ccc(O)c(C(C)(C)CC)c1` showed a melting point of 25 °C.
`CC(C)(Oc1ccc(Cl)cc1)C(=O)NC(=O)NCN1CCOCC1` gave a melting point of 100 °C.
Work on `O=C(O)CCN1C(=O)c2ccccc2C1=O` yielded a melting point of 152 °C.
For `C=C[Si]12OCCN(CCO1)CCO2`, the melting point was 163 to 165 °C.
Work on `Brc1ccc(-c2ccccc2)s1` yielded a melting point of 83 to 85 °C.
With `CSc1ccc(Oc2cccc(F)c2C#N)cc1` the melting point was 68 to 71 °C.
Compound `O=C1CCC(c2ccc(NC(=O)c3cccc(C(F)(F)F)c3)cc2)=NN1` has a melting point of 234 to 235 °C.
Work on `CCCCCCCC(=O)c1ccccc1` yielded a melting point of 22.8 °C.
Compound `C1CCCCCCCCCCCCC1` has a melting point of 54 °C.
In the case of `C#CC1(O)CCC2(C)C(CCC3C2CCC2(C)C3CCC23OCCO3)C1` (stereo not given), the melting point is reported as 203 to 209 °C.
`Cc1c(C(C)OC(=O)CCC(=O)O)oc2ccc(C3=CC(=O)OC3)cc12` (stereo not given) showed a melting point of 144 °C.
`CSc1nc2cc(N=Cc3ccc([N+](=O)[O-])cc3)ccc2[nH]1` gave a melting point of 259 to 260 °C.
Work on `O=C1CC(=P(c2ccccc2)(c2ccccc2)c2ccccc2)C(=O)O1` yielded a melting point of 167 °C.
With `O=C(Cl)c1cnn(-c2ccc([N+](=O)[O-])cc2)c1C(F)(F)F` the melting point was 77 to 79 °C.
Compound `O=C1N(c2ccccc2)C(=O)[C@@]2(Cl)C(c3ccccc3)(c3ccccc3)C[C@@]12Cl` has a melting point of 160 °C.
Work on `NC(=O)c1ccccc1C(F)(F)F` yielded a melting point of 163 °C.
In the case of `CC1=CC(C(=O)O)c2ccccc21` (stereo not given), the melting point is reported as 139 °C.
Compound `N#Cc1ccc(OC2CCOCC2)cc1` has a melting point of 109 to 112 °C.
In the case of `c1ccc(-c2ccc(-c3cnc(-c4ccc(-c5ccccc5)cc4)o3)cc2)cc1`, the melting point is reported as 239 °C.
Compound `Cc1ccc([Si](C)(C)c2ccccc2CO)cc1` has a melting point of 56 °C.
Compound `Nc1ccc(C=Cc2nc3ccccc3[nH]2)cc1` has a melting point of 225 °C.
`O=S(=O)(Cl)c1ccc(Oc2ccccc2)nc1` gave a melting point of 114 to 116 °C.
`O=C(O)CNC(=O)c1ccccc1O` gave a melting point of 168 °C.
With `C1=CC2(CC2)C2C1C1C=CC2C12CC2` (stereo not given) the melting point was 45 °C.
With `CC(=O)Nc1ccc(Cl)cc1[N+](=O)[O-]` the melting point was 98 °C.
Work on `CSc1nc(N=Cc2ccc(Cl)cc2)nn1C` yielded a melting point of 136 to 138 °C.
In the case of `CCN(CC)c1ccc(N=Nc2ccccc2)cc1`, the melting point is reported as 97.5 °C.
Work on `O=C(O)c1cncc(-c2ccco2)c1` yielded a melting point of 261 to 263 °C.
In the case of `O=S1(=O)c2cccc3cccc(c23)N1CCCCCl`, the melting point is reported as 38 to 40 °C.
Compound `COc1c(F)c(F)cc(C(=O)O)c1F` has a melting point of 115 °C.
Work on `CC12CCC(O)CC1CCC1C2CCC2(C)C1CCC2(O)C#Cc1ccccc1` (stereo not given) yielded a melting point of 120 to 123 °C.
For `O=S(=O)(O)c1ccc(N=Nc2ccc(N=Nc3ccc(S(=O)(=O)O)cc3)cc2)cc1`, the melting point was 157 °C.
`CCCCCCCCCCCCCCCCCCOC(=O)CCc1cc(C(C)(C)C)c(O)c(C(C)(C)C)c1` gave a melting point of 52.5 °C.
For `Cn1c(=O)c(C2=NNC(=O)C2=CNc2ccccc2)c(O)c2ccccc21`, the melting point was 272 °C.
With `O=C(C(C(F)(F)F)C(F)(F)F)N(Cc1ccccc1)Cc1ccccc1` the melting point was 76 °C.
Work on `CCOC(=O)C(C#N)=NNc1ccc(Cl)cc1` yielded a melting point of 161 to 162 °C.
Compound `CCOP(=S)(Oc1ccc([N+](=O)[O-])cc1)c1ccccc1` (stereo not given) has a melting point of 36 °C.
Work on `CC(=O)OC[C@H]1O[C@@H](OC(C)=O)[C@H](OC(C)=O)[C@@H]1OC(C)=O` yielded a melting point of 79 to 81 °C.
With `FC(Cl)C(F)(F)Cl` (stereo not given) the melting point was -78 °C.
With `O=C(O)c1ccc(Br)c([N+](=O)[O-])c1` the melting point was 204 °C.
Compound `COc1cc(C(=O)O)cc(OCc2ccccc2)c1OC` has a melting point of 178 °C.
In the case of `CS(=O)(=O)c1ccc(C(=O)O)c(Cl)c1`, the melting point is reported as 194 °C.
For `N#CC1(c2ccccc2)Cc2ccccc2C(=O)O1` (stereo not given), the melting point was 141 °C.
Work on `CCCCCCC1CCCCC1` yielded a melting point of -43 °C.
`COc1cccc(CC(C)=O)c1` showed a melting point of 258 to 260 °C.
In the case of `COc1cc(OC)nc(NC(=O)NS(=O)(=O)c2ncccc2C(=O)N(C)C)n1`, the melting point is reported as 145 °C.
`COC1(OC)c2ccccc2C(O)(c2ccccc2)c2ccccc21` showed a melting point of 189 °C.
Compound `Clc1ncc(Br)cn1` has a melting point of 79 °C.
With `Fc1ccc2ccccc2c1` the melting point was 61 °C.
In the case of `Fc1cccc2cc[nH]c12`, the melting point is reported as 62 °C.
With `CC(CN1CCOCC1)C(C(=O)N1CCCC1)(c1ccccc1)c1ccccc1` (stereo not given) the melting point was 180 °C.
Compound `Cc1ccc(C(C)(C)C)c(O)c1` has a melting point of 46.5 °C.
`COCc1cc(O)nc(S)n1` gave a melting point of 220 to 223 °C.
`CCOc1ccc(C(=O)OCCN(CC)CC)cc1` showed a melting point of 173 °C.
Compound `Cc1ccc2cc3ccccc3cc2c1` has a melting point of 209 °C.
`C#CCC1(CC#C)C(=O)OC(C)(C)OC1=O` showed a melting point of 135 to 137 °C.
`Cc1c(/C=C/c2ccc(Cl)cc2Cl)c2ccccc2n1S(=O)(=O)c1ccccc1` showed a melting point of 110 °C.
Work on `O=C(Oc1ccc(Cl)cc1)c1ccc(Oc2ccc(C(=O)Oc3ccc(Cl)cc3)cc2)cc1` yielded a melting point of 149 °C.
In the case of `CC1C(=O)C23C(O)CC4C(C)(C)CCCC45COC(CC1C2O)C53` (stereo not given), the melting point is reported as 218 to 221 °C.
`CC1CCC(C)(C(=O)CN(C)C(=S)Nc2ccccc2)C1(C)C` (stereo not given) showed a melting point of 147 °C.
In the case of `CN[C@@H](Cc1c[nH]c2ccccc12)C(=O)O`, the melting point is reported as 295 °C.
`CC(=O)OCC(=O)O` showed a melting point of 67.5 °C.
Compound `O=C(O)c1ccc(C(=O)C(F)(F)F)cc1` has a melting point of 178 to 181 °C.
`OCc1cccc(COc2ccccc2)c1` showed a melting point of 58 to 60 °C.
With `CCOc1ccccc1NC(C)=O` the melting point was 79 °C.
Compound `CNc1ccc(O)c2c1C(=O)c1c(O)ccc(NC)c1C2=O` has a melting point of 217 °C.
Work on `CC(C)NCC(O)COc1cccc2ccccc12` (stereo not given) yielded a melting point of 162 °C.
`Oc1ccc(C2CCCCC2)cc1Cl` showed a melting point of 40.5 °C.
With `CCOC(=O)OC(=O)C1=CC(C)(C)N(O)C1(C)C` the melting point was 64 to 65 °C.
For `CCCC(O)CC(C)C` (stereo not given), the melting point was -81 °C.
Compound `O=C(O)C=Cc1cc(Br)ccc1F` has a melting point of 195 to 199 °C.
Work on `Cc1ccc(C2(C(=O)O)CC2)cc1` yielded a melting point of 109 to 114 °C.
Work on `S=C1NCCc2ccccc21` yielded a melting point of 97 to 99 °C.
Work on `CCCCCCC(=O)CC` yielded a melting point of -8 °C.
`COC1CCC=CO1` (stereo not given) showed a melting point of 16 °C.
Compound `CCOC(=O)NP(=O)(N1CC1)N1CC1` has a melting point of 89 °C.
Work on `CC(=O)OCC(=O)C1CCC2C3CC=C4CC(O)CCC4(C)C3CCC12C` (stereo not given) yielded a melting point of 184 °C.
Compound `ClCc1c(Cl)c(Cl)c(CCl)c(Cl)c1Cl` has a melting point of 174 °C.
In the case of `CCC(=O)N1C(=O)OC[C@@H]1Cc1ccccc1`, the melting point is reported as 42 to 44 °C.
Work on `N#CC(=CNc1ccccc1)c1ccccc1` yielded a melting point of 156 °C.
In the case of `CCNc1nc2c(cc1C(=O)OCC)c(=O)oc1ccccc12`, the melting point is reported as 186 °C.
`COC(OC)(OC)OC` gave a melting point of -5 °C.
Work on `Nc1ccc(N)c2ccccc12` yielded a melting point of 120 °C.
`CCOC(=O)/C(C#N)=C/c1ccc(-c2ccc(Br)cc2)o1` showed a melting point of 167 °C.
`O=C1CN=C(c2ccccc2)c2cc(Cl)ccc2N1CC1CC1` showed a melting point of 146 °C.
In the case of `Cc1cc(C(=O)Cl)nn1C`, the melting point is reported as 73 to 74 °C.
For `COC(=O)c1c(OC)c(OC)c(OC)c(C(=O)OC)c1C(=O)OC`, the melting point was 84 to 85 °C.
Work on `CC(=O)Nc1ccc2c(OC(C)=O)c(-c3ccccc3)[nH]c2c1` yielded a melting point of 219 °C.
For `CSc1nn2c(C(F)(F)F)cc(C(F)(F)F)nc2c1C(N)=O`, the melting point was 250 °C.
With `Cc1ccc(-c2csc(/C(C#N)=N\Nc3ccc(Cl)cc3)n2)cc1` the melting point was 172 °C.
With `CCCCCCCCCCCCCCCC(=O)OCCO` the melting point was 51 °C.
`CC(NC(=O)C(C(F)(F)F)C(F)(F)F)c1ccccc1` (stereo not given) gave a melting point of 137 °C.
For `CCO[Si](Cl)(OCC)OCC`, the melting point was -51 °C.
Compound `N#CCCOCCC#N` has a melting point of -26.3 °C.
Work on `CCOC(=O)c1cc(C)on1` yielded a melting point of 29 °C.
`O=C=Nc1ccc(Cl)cc1Cl` gave a melting point of 59 to 60 °C.
`COc1ccccc1P(c1ccccc1OC)c1ccccc1OC` gave a melting point of 204 to 208 °C.
Compound `OC1OC(COCc2ccccc2)C(OCc2ccccc2)C(OCc2ccccc2)C1OCc1ccccc1` (stereo not given) has a melting point of 152 °C.
`CCc1ccc(C(c2ccc(CC)o2)c2cc3c(cc2[N+](=O)[O-])OCCO3)o1` gave a melting point of 86 °C.
Compound `O=C(c1ccccc1)c1c(-c2ccccc2)n(C(=O)c2ccccc2)c2cc([N+](=O)[O-])ccc12` has a melting point of 204 °C.
In the case of `CC12CCC(=O)C=C1CCC1C2CCC2(C)C(O)CCC12` (stereo not given), the melting point is reported as 153 °C.
For `NC1(C(=O)O)CCCC1`, the melting point was 320 to 322 °C.
With `CCCC(C)(CO)CO` the melting point was 62.5 °C.
For `NNc1ncc(C(=O)OCc2ccc(Cl)cc2)c(C(F)(F)F)n1`, the melting point was 111 to 113 °C.
`Nc1c(Br)cc(C(F)(F)F)cc1[N+](=O)[O-]` showed a melting point of 71 °C.
Compound `O=C(O)c1nccnc1C(=O)O` has a melting point of 188 °C.
Work on `Cc1ccc(Oc2cccc(F)c2C#N)cc1` yielded a melting point of 93 to 95 °C.
With `NCCc1c[nH]c2ccc(O)cc12` the melting point was 168 °C.
In the case of `Sc1nccc(-c2ccco2)n1`, the melting point is reported as 200 °C.
For `C#Cc1ccc(-c2cnco2)cc1`, the melting point was 76 to 77 °C.
